These results are taken from publication PMC12259270, “Sensory neuron–expressed FGF13 controls nociceptive signaling in diabetic neuropathy models” (The Journal of Clinical Investigation, 2025).

Assay [1] relates to C57BL/6 mice. Description: Capsaicin-induced thermal hypersensitivity (Hargreaves). The assay is classed as in vivo, mouse. From the text: FGF13 is a neuronal gene ubiquitously transcribed in DRG neuronal subtypes ([43]–[46]). To investigate neuronal subtype enrichment of the FGF13 transcript, we examined a gene panel including FGF13, SCN9A, and several marker genes in mouse single-cell transcriptomic data (Supplemental Figure 10) ([43]–[46]). […] Critically, putative silent nociceptors marked by somatostatin (SST), and the nicotinic cholinergic receptor α-3 subunit (CHRNA3) contribute to development of inflammatory mechanical hyperalgesia ([47]). […] We next determined if PW164 modulation of the FGF13/Nav1.7 complex could suppress nociceptive behaviors in WT mice. We tested whether intraplantar (i.pl.) injection (5 μL) of PW164 altered hind paw withdrawal in response to low or high intensity von Frey filament (LVF or HVF, respectively) mechanical stimulation (Figure 3A). […] Next, we evaluated PW164’s effect on mechanical and thermal hindpaw sensitivity in capsaicin-induced nociceptive hypersensitivity models. […] Next, we performed in vivo target validation in WT mice that received an intrathecal (i.t.) injection in L5 of AAV2-shFGF13 (6 μL, viral titers 1 × 10^12 vector genomes (vg)/mL); a control group received an equal number of AAV2-shCTRL particles (Figure 3C).
Experiments were performed on 6- to 12-week-old male C57BL/6 mice (The Jackson Laboratory, Bar Harbor, ME) housed in the AAALAC-accredited facility at the University of Texas Medical Branch. Mice were group-housed with up to 5 mice per cage on a 12-to-12-hour light–dark cycle and had access to water and food ad libitum. All protocols were approved by the Institutional Animal Care and Use Committee (IACUC) at the University of Texas Medical Branch and in accordance with the National Institutes of Health (NIH) guidelines.
PW164 and ZL192 were dissolved in DMSO and saline in a ratio of 1:10. 0.1% capsaicin (10% ethanol, 10% Tween-20 in saline; Sigma-Aldrich). All the compounds were injected at the center of the hind paw. The control group received a DMSO-saline mixture. […]
AAV2 viral particles packaged by the University of North Carolina Gene Therapy Core Facility (viral titer ranging […]
Before intrathecal injections in the lumbar region, mice were maintained in an anesthetizing box with 2% isoflurane to induce unconsciousness. Six microliters of viral vector were gently injected into the CSF through a 30-gauge needle with a Hamilton syringe in the lumbar area between vertebrae L4 and L5 by gently gripping the iliac crest of the mouse and inserting the needle with an angle of 45°. The correct procedure was confirmed by the mouse’s tail reflexiv e flick. […]

A further assay addresses T1, Nav1.7 CTD (Homo sapiens, UniProt Q15858).
T1 construct: purchased Ontores Biotechnologies Co; host or cells: chemical synthesis
The experiment in a line: SPR, compound binding to Nav1.7-CTD peptide. (In general: Surface plasmon resonance follows binding to a sensor surface in real time, without labels.)

For assay [2], the system named is C57BL/6 mice. The experiment in a line: Mechanical allodynia/hyperalgesia induced by intrathecal AAV2-FGF13-GFP (von Frey). The assay is classed as in vivo, mouse.

Where “and” joins values, the source holds several entries; their conditions need not be identical. Equal entries are not always repeated. Residues, ends and D or L forms follow the SMILES beside them. *: point of attachment. Cbz = O=C(OCc1ccccc1)*; OtBu = CC(C)(C)O*

T1 sequence (Q15858 1888-1910 limits assumed): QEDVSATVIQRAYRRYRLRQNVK

Turning to `COC(=O)[C@@H](NC(=O)[C@H](CCC(=O)OC(C)(C)C)NC(=O)[C@H](CC(C)C)NC(=O)[C@@H]1CCCN1C(=O)OCc1ccccc1)C(C)C` [PW164] (Cbz-PLE(OtBu)V-OMe), the “thermal sensitivity in AAV2-shFGF13 mice after capsaicin” value with C57BL/6 mice [1] (PW164 5 μL, 0.7mg/mL hind paw) is recorded as “did not further modify”. Also, in the assay on C57BL/6 mice [1] (PW164 at the capsaicin injection site, 30 minutes post-capsaicin), the capsaicin-induced thermal sensitivity entry is “inhibited”. The “KD, binding to Nav1.7 CTD” value at Nav1.7 CTD is on record as “no interaction”. Besides, in the assay with C57BL/6 mice [2] (Figure 6E, PW164 0.7 mg/ml, 1h 30 min), the HVF was 36.67 and 43.33 and 50 and 46.67 and 33.33 and 40. Moreover, the “allodynia and hyperalgesia in AAV2-FGF13-GFP mice” value with C57BL/6 mice [2] (day 68, PW164 5 μL, 0.7 mg/mL) is given as “complete recovery”.
